Numbers after ± are expanded uncertainties.
Assay: activity coefficient (dimensionless); of the first substance listed, at infinite dilution; xn = mol fraction of the nth substance listed
Details: 101.33 kPa, Liquid, Chromatography, x1 = 0

Structure (SMILES)	activity coefficient (358.15 K)	activity coefficient (368.15 K)	activity coefficient (378.15 K)	activity coefficient (388.15 K)	activity coefficient (398.15 K)	activity coefficient (408.15 K)
Cc1ccccc1C [1,2-dimethylbenzene] + CCCC[P+](CCCC)(CCCC)CCCC.O=S(=O)([N-]S(=O)(=O)C(F)(F)F)C(F)(F)F	1.39 ± 0.09	1.43 ± 0.09	1.48 ± 0.1	1.52 ± 0.1	1.57 ± 0.1	1.61 ± 0.11
Cc1cccc(C)c1 [1,3-dimethylbenzene] + CCCC[P+](CCCC)(CCCC)CCCC.O=S(=O)([N-]S(=O)(=O)C(F)(F)F)C(F)(F)F	1.53 ± 0.1	1.58 ± 0.1	1.63 ± 0.11	1.68 ± 0.11	1.72 ± 0.12	1.77 ± 0.12
Cc1ccc(C)cc1 [1,4-dimethylbenzene] + CCCC[P+](CCCC)(CCCC)CCCC.O=S(=O)([N-]S(=O)(=O)C(F)(F)F)C(F)(F)F	1.55 ± 0.1	1.6 ± 0.11	1.64 ± 0.11	1.69 ± 0.11	1.74 ± 0.12	1.79 ± 0.12
C1COCCO1 [1,4-dioxane] + CCCC[P+](CCCC)(CCCC)CCCC.O=S(=O)([N-]S(=O)(=O)C(F)(F)F)C(F)(F)F	0.795 ± 0.052	0.825 ± 0.053	0.853 ± 0.055	0.884 ± 0.056	0.911 ± 0.058	0.941 ± 0.059
C=CCCCCCCCC [1-decene] + CCCC[P+](CCCC)(CCCC)CCCC.O=S(=O)([N-]S(=O)(=O)C(F)(F)F)C(F)(F)F	7.54 ± 0.51	7.48 ± 0.51	7.41 ± 0.51	7.36 ± 0.5	7.3 ± 0.5	7.25 ± 0.49
C=CCCCCC [1-heptene] + CCCC[P+](CCCC)(CCCC)CCCC.O=S(=O)([N-]S(=O)(=O)C(F)(F)F)C(F)(F)F	3.96 ± 0.27	4 ± 0.27	4.05 ± 0.28	4.09 ± 0.28	4.13 ± 0.28	4.17 ± 0.28
C#CCCCCC [1-heptyne] + CCCC[P+](CCCC)(CCCC)CCCC.O=S(=O)([N-]S(=O)(=O)C(F)(F)F)C(F)(F)F	2.28 ± 0.16	2.35 ± 0.16	2.42 ± 0.16	2.48 ± 0.17	2.55 ± 0.17	2.62 ± 0.18
C#CCCCC [1-hexyne] + CCCC[P+](CCCC)(CCCC)CCCC.O=S(=O)([N-]S(=O)(=O)C(F)(F)F)C(F)(F)F	1.88 ± 0.13	1.94 ± 0.13	2 ± 0.14	2.06 ± 0.14	2.11 ± 0.14	2.17 ± 0.15
CCC[N+](=O)[O-] [1-nitropropane] + CCCC[P+](CCCC)(CCCC)CCCC.O=S(=O)([N-]S(=O)(=O)C(F)(F)F)C(F)(F)F	0.693 ± 0.047	0.708 ± 0.047	0.724 ± 0.048	0.739 ± 0.049	0.754 ± 0.05	0.768 ± 0.05
C#CCCCCCC [1-octyne] + CCCC[P+](CCCC)(CCCC)CCCC.O=S(=O)([N-]S(=O)(=O)C(F)(F)F)C(F)(F)F	2.79 ± 0.19	2.87 ± 0.2	2.93 ± 0.2	3 ± 0.2	3.07 ± 0.21	3.13 ± 0.21
C=CCCC [1-pentene] + CCCC[P+](CCCC)(CCCC)CCCC.O=S(=O)([N-]S(=O)(=O)C(F)(F)F)C(F)(F)F	2.61 ± 0.18	2.66 ± 0.18	2.7 ± 0.18	2.74 ± 0.19	2.78 ± 0.19	2.82 ± 0.19
C#CCCC [1-pentyne] + CCCC[P+](CCCC)(CCCC)CCCC.O=S(=O)([N-]S(=O)(=O)C(F)(F)F)C(F)(F)F	1.52 ± 0.1	1.58 ± 0.1	1.64 ± 0.11	1.7 ± 0.11	1.76 ± 0.12	1.82 ± 0.12
